Results from the NIST ThermoML archive (doi:10.1021/je301147k).
± gives the expanded uncertainty stated by the source.

Experiment: mn = molality of the nth substance listed, in mol/kg
Conditions: for electrical conductivity: 100 kPa, Liquid, CyberScan CON1500 Bench Conductivity Meter; for surface tension liquid-gas: 298.2 K, Ring tensiometer

CCCCCCCCCCCC[n+]1ccn(C)c1.[Cl-] [1-dodecyl-3-methylimidazolium chloride] + O
electrical conductivity [S/m]
Conditions	288.15 K	293.15 K	298.15 K	303.15 K
m1 = 0.001	0.00787 ± 0.00011	0.00877 ± 0.00012	0.00992 ± 0.00013	0.0109 ± 0.00015
m1 = 0.002	0.0149 ± 0.0002	0.0166 ± 0.00023	0.0187 ± 0.00026	0.0207 ± 0.00028
m1 = 0.003	0.0219 ± 0.0003	0.0245 ± 0.00034	0.0273 ± 0.00038	0.0304 ± 0.0004
m1 = 0.004	0.0289 ± 0.0004	0.0324 ± 0.00045	0.0367 ± 0.00051	0.0408 ± 0.00057
m1 = 0.005	0.0355 ± 0.00051	0.0401 ± 0.00056	0.0448 ± 0.00062	0.0503 ± 0.00069
m1 = 0.006	0.0433 ± 0.0006	0.0481 ± 0.00065	0.054 ± 0.00074	0.0598 ± 0.00081
m1 = 0.007	0.0491 ± 0.00067	0.0548 ± 0.0008	0.0617 ± 0.0009	0.0687 ± 0.00095
m1 = 0.008	0.0562 ± 0.0008	0.0637 ± 0.00091	0.071 ± 0.001	0.0787 ± 0.0011
m1 = 0.009	0.0633 ± 0.00085	0.0711 ± 0.00095	0.0795 ± 0.0011	0.0885 ± 0.0012
m1 = 0.01	0.0688 ± 0.00095	0.0778 ± 0.0011	0.0871 ± 0.0012	0.0961 ± 0.0013
m1 = 0.011	0.0764 ± 0.0011	0.0861 ± 0.0012	0.0964 ± 0.0014	0.107 ± 0.0016
m1 = 0.012	0.0832 ± 0.0011	0.0934 ± 0.0012	0.105 ± 0.0014	0.117 ± 0.0016
m1 = 0.013	0.0886 ± 0.0012	0.0991 ± 0.0013	0.112 ± 0.0014	0.124 ± 0.0016
m1 = 0.014	0.095 ± 0.0013	0.106 ± 0.0014	0.118 ± 0.0015	0.132 ± 0.0017
m1 = 0.015	0.1 ± 0.0013	0.112 ± 0.0014	0.126 ± 0.0016	0.14 ± 0.0017
m1 = 0.016	0.105 ± 0.0012	0.117 ± 0.0013	0.131 ± 0.0015	0.145 ± 0.0017
m1 = 0.017	0.107 ± 0.0012	0.12 ± 0.0014	0.136 ± 0.0015	0.15 ± 0.0017
m1 = 0.018	0.111 ± 0.0013	0.125 ± 0.0014	0.14 ± 0.002	0.155 ± 0.0018
m1 = 0.019	0.115 ± 0.0013	0.129 ± 0.0014	0.144 ± 0.0016	0.16 ± 0.0018
m1 = 0.02	0.117 ± 0.0013	0.132 ± 0.0014	0.146 ± 0.0016	0.165 ± 0.0019
m1 = 0.021	0.12 ± 0.0013	0.135 ± 0.0015	0.15 ± 0.0017	0.169 ± 0.0019
m1 = 0.022	0.122 ± 0.0014	0.137 ± 0.0015	0.154 ± 0.0018	0.173 ± 0.002
m1 = 0.023	0.125 ± 0.0014	0.141 ± 0.0016	0.158 ± 0.0018	0.178 ± 0.002
m1 = 0.024	0.128 ± 0.0014	0.144 ± 0.0016	0.162 ± 0.0018	0.181 ± 0.002
m1 = 0.025	0.131 ± 0.0015	0.147 ± 0.0018	0.166 ± 0.0019	0.185 ± 0.0021

Conditions	surface tension liquid-gas [mN/m]
m1 = 0.001	69.37 ± 1.9
m1 = 0.002	63.46 ± 1.8
m1 = 0.004	58.36 ± 1.6
m1 = 0.006	53.85 ± 1.5
m1 = 0.01	47.71 ± 1.4
m1 = 0.014	43.05 ± 1.2
m1 = 0.018	38.43 ± 1.1
m1 = 0.02	38.26 ± 1.1
m1 = 0.025	38.38 ± 1.1
m1 = 0.03	38.61 ± 1.1
m1 = 0.04	38.35 ± 1.1
m1 = 0.05	38.55 ± 1.1

CCCCCCCCCCCCn1cc[n+](C)c1.[I-] [1-dodecyl-3-methylimidazolium iodide] + O
electrical conductivity [S/m]
Conditions	288.15 K	293.15 K	298.15 K	303.15 K
m1 = 0.0005	0.00423 ± 7.9e-05	0.00497 ± 9.2e-05	0.00565 ± 0.0001	0.00618 ± 0.00011
m1 = 0.001	0.00828 ± 0.00015	0.00961 ± 0.00017	0.0108 ± 0.0002	0.0118 ± 0.00021
m1 = 0.002	0.0151 ± 0.00028	0.017 ± 0.00031	0.0191 ± 0.00035	0.0211 ± 0.00039
m1 = 0.003	0.0227 ± 0.00042	0.0255 ± 0.00047	0.0287 ± 0.00053	0.0316 ± 0.00059
m1 = 0.004	0.0292 ± 0.00051	0.0332 ± 0.0006	0.0373 ± 0.00068	0.0413 ± 0.00076
m1 = 0.005	0.0334 ± 0.00056	0.0388 ± 0.00065	0.0452 ± 0.00077	0.0506 ± 0.00088
m1 = 0.006	0.036 ± 0.00058	0.0418 ± 0.00068	0.0483 ± 0.00078	0.0552 ± 0.00091
m1 = 0.007	0.0368 ± 0.0006	0.0432 ± 0.00069	0.05 ± 0.0008	0.0579 ± 0.00093
m1 = 0.008	0.0378 ± 0.00061	0.0444 ± 0.00071	0.0516 ± 0.00083	0.0595 ± 0.00096
m1 = 0.009	0.0393 ± 0.00063	0.0459 ± 0.0007	0.0532 ± 0.00086	0.0614 ± 0.00099
m1 = 0.01	0.04 ± 0.00064	0.047 ± 0.00076	0.0543 ± 0.00087	0.0634 ± 0.001
m1 = 0.011	0.0412 ± 0.0007	0.0485 ± 0.00079	0.0558 ± 0.0009	0.0653 ± 0.0011
m1 = 0.012	0.042 ± 0.00067	0.0502 ± 0.00081	0.0576 ± 0.0009	0.0672 ± 0.0011
m1 = 0.013	0.0425 ± 0.00069	0.0508 ± 0.00082	0.0589 ± 0.00095	0.0687 ± 0.0011
m1 = 0.014	0.0441 ± 0.00072	0.0519 ± 0.00085	0.06 ± 0.00097	0.0699 ± 0.0011
m1 = 0.015	0.0448 ± 0.00072	0.0535 ± 0.0009	0.0616 ± 0.001	0.0712 ± 0.0011
m1 = 0.016	0.0458 ± 0.00075	0.0542 ± 0.00088	0.0631 ± 0.001	0.0728 ± 0.0012
m1 = 0.017	0.0471 ± 0.00078	0.0556 ± 0.00091	0.0645 ± 0.0011	0.0739 ± 0.0012
m1 = 0.018	0.0483 ± 0.00079	0.0568 ± 0.00092	0.066 ± 0.0011	0.0758 ± 0.0013
m1 = 0.019	0.0489 ± 0.00079	0.0574 ± 0.0009	0.0667 ± 0.0011	0.0774 ± 0.0013
m1 = 0.02	0.0496 ± 0.0008	0.0582 ± 0.00095	0.0677 ± 0.0011	0.0784 ± 0.0013

Conditions	surface tension liquid-gas [mN/m]
m1 = 0.0001	69.81 ± 2
m1 = 0.0005	65.15 ± 1.8
m1 = 0.001	56.7 ± 1.6
m1 = 0.002	46.92 ± 1.3
m1 = 0.003	38.08 ± 1.1
m1 = 0.004	33.49 ± 0.96
m1 = 0.005	31.45 ± 0.91
m1 = 0.006	31.48 ± 0.91
m1 = 0.007	31.39 ± 0.9
m1 = 0.009	31.5 ± 0.9
m1 = 0.012	31.6 ± 0.9
m1 = 0.016	31.57 ± 0.91
m1 = 0.02	31.66 ± 0.91
